Results published in patent US9371292B2, “Quinazoline derivative, preparation method therefor, intermediate, composition and application thereof” (SHANGHAI PHARMACEUTICALS HOLDINGS CO., LTD., priority 2011, dated 2016).
Like-named read-outs stand apart in the source and are kept apart here.

Columns and labels:
EGFR = EGFR (Homo sapiens, UniProt P00533); assay: Mobility shift assay, kinase inhibition (EGFR); type: biochemical; details: read-out: Kinase inhibitory activity IC50 (nM) EGFR
Procedure: (§1) Enzyme activity assay was test by the Mobility shift assay method (Expert Opin Drug Discov. 2008, 3(6): 607-621). A 10 mM stock solution of the test compound in DMSO were made after weighing. According to the required concentration, proper quantity of the 10 mM stock solution was dissolved in water to get a work solution with a concentration 5 times the final concentration. And various kinases, EGFR, HER2, HER4 were dissolved into a reaction buffer with a concentration 1.25 times the required concentration (62.5 mM HEPES, pH7.5, 0.001875% Brij-35, 12.5 mM MgCl2, 2.5 mM DTT), and get a enzyme work solution with a concentration 2.5 times the final concentration. At the same time, ATP and FAM tag peptide substrates will be dissolved in the reaction buffer with a concentration of 1.25× to get a substrate and ATP working solution with a concentration 2.5 times the required concentration. Then 5 μl the work solution of compound is added to 384 wells test plate, 5 μl 250 mM EDTA is added to a blank control, the same volume of work solution without drug is added to the negative control (Max). 10 μl Enzyme work solution is added at the same time. After mix gently and hatch for 10 minutes at room temperature, 10 μl substrate and ATP work solution are added to each well. The test plates are placed at 28 degrees for 60 mins. Then 25 μl suspending liquid is added into each reaction well (100 mM HEPES, pH7.5, 0.015% Brij-35, 0.2% Coating Reagent#3, 50 mM EDTA) to quench the enzyme reaction. Finally, the plate is put on Caliper EZ reader to collect conversion rate of the substrate in each well (The phosphorylation ratio of the substrate caused by the kinases). Based on the data described above, the kinase inhibitory of the compound can be calculated as follows: % inh=(Max−conversion)/(Max−Min)×100, wherein % inh is percent inhibition, Max is the conversion ratio of the substrate in negative control well, min is the conversion ratio of the substrate in blank control well, conversion is the conversion rate of substrate in each well with various concentration of the test compound. The % inh value of each concentration of the test compound would be analyzed in Xlift to obtain the corresponding IC50 value, the curve fitting formula is: Y=Bottom+(Top−Bottom)/(1+10^((Log IC50−X)*Hillslope))

HER2 = HER2 (Homo sapiens, UniProt P04626); assay: Mobility shift assay, kinase inhibition (HER2); type: biochemical; details: read-out: Kinase inhibitory activity IC50 (nM) HER2
Chain of HER2 (P04626 23-1255): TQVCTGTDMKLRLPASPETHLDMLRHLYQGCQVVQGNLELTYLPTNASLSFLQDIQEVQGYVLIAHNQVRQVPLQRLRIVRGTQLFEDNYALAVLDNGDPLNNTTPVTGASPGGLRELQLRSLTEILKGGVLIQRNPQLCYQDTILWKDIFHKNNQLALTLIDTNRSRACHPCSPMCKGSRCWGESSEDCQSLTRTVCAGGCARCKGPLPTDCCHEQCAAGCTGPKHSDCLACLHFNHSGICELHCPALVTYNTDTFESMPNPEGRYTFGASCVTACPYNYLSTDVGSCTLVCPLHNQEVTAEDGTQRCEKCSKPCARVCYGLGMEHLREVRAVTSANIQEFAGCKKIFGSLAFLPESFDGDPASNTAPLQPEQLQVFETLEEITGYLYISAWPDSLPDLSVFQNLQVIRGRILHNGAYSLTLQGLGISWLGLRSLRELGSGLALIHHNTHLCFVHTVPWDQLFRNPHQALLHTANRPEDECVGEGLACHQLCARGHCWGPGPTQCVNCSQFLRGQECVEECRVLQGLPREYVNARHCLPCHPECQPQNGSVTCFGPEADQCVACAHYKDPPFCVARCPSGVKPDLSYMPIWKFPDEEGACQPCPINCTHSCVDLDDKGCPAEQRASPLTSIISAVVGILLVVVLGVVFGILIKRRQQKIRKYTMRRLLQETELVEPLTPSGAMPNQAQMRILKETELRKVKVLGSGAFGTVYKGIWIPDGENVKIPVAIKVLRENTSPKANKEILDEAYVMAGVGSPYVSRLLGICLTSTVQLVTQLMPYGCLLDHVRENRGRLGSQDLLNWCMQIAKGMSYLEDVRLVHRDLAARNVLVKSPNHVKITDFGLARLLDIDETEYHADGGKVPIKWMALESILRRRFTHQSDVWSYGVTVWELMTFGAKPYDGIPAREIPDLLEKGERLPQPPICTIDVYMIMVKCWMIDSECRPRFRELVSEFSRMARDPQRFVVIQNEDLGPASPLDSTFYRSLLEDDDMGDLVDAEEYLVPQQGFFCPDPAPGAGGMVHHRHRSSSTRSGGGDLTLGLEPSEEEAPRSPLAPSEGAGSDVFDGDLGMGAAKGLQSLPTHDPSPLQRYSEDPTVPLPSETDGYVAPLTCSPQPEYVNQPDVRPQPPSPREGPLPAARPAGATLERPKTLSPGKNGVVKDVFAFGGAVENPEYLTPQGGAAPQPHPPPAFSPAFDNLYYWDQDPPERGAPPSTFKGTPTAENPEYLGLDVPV
Procedure: as §1

NCI-H1975 = type: in vivo, BALB/c nude mice; details: NCI-H1975 nude mice; for Tumor volume: 60 mg/kg PO QD
From the text: Preparation method: dissolve the test compound in 20% PEG400+3% Tween80 to obtain a required concentration; dissolve the control group in 0.5% CMC+0.4% Tween80 to obtain a required concentration.
BALB/c nude mice (Shanghai xipuer-bikai experimental animals company), weight 16-18 g, female. BD matrigel, NCI-H1975 cell (ATCC)
Cells in logarithmic phase were collected. The ratio of medium to matrigel was 1:1. The concentration of cell was adjust to 3×10^7/ml and put into a ice box, then inoculated in each nude mice subcutaneously with 0.2 ml. Then carry out intragastric administration once a day for 5 days and stop administration for 2 days. Administrate for 9 days in total. Dosages are as follows:
The size and weight were measured. The length and width of tumors were measured individually with microcalipers. Tumor volume (V) and relative tumor volume (RTV) was calculated as formula. Day 12, all the nude mouse were killed and the tumors were taken out and pictured. The individual as follows: RTV=Vt/V0, where Vt is and V0 is. and the calculation formula is T/C (%)=mean RTV of the treated group/mean RTV of the control group×100%.
(1) Tumor volume (Tumor Volume, TV), calculation formula: […], wherein a and b presents length and width respectively.
(2) Relative Tumor Volume (RTV), calculation formula: RTV=Vt/V0.
Wherein TV0 is the volume on the day of initial treatment, TVt is the volume on each day of measurement.
(3) The relative tumor increment rate T/C (%), calculation formula: […]
TRTV: treated group RTV; CRTV: negative control group RTV.
Therapeutic effect of compound was expressed in terms of T/C %.

HER4 = HER4 (Homo sapiens, UniProt Q15303); assay: Mobility shift assay, kinase inhibition (HER4); type: biochemical; details: read-out: Kinase inhibitory activity IC50 (nM) HER4
Chain of HER4 (Q15303 26-1308): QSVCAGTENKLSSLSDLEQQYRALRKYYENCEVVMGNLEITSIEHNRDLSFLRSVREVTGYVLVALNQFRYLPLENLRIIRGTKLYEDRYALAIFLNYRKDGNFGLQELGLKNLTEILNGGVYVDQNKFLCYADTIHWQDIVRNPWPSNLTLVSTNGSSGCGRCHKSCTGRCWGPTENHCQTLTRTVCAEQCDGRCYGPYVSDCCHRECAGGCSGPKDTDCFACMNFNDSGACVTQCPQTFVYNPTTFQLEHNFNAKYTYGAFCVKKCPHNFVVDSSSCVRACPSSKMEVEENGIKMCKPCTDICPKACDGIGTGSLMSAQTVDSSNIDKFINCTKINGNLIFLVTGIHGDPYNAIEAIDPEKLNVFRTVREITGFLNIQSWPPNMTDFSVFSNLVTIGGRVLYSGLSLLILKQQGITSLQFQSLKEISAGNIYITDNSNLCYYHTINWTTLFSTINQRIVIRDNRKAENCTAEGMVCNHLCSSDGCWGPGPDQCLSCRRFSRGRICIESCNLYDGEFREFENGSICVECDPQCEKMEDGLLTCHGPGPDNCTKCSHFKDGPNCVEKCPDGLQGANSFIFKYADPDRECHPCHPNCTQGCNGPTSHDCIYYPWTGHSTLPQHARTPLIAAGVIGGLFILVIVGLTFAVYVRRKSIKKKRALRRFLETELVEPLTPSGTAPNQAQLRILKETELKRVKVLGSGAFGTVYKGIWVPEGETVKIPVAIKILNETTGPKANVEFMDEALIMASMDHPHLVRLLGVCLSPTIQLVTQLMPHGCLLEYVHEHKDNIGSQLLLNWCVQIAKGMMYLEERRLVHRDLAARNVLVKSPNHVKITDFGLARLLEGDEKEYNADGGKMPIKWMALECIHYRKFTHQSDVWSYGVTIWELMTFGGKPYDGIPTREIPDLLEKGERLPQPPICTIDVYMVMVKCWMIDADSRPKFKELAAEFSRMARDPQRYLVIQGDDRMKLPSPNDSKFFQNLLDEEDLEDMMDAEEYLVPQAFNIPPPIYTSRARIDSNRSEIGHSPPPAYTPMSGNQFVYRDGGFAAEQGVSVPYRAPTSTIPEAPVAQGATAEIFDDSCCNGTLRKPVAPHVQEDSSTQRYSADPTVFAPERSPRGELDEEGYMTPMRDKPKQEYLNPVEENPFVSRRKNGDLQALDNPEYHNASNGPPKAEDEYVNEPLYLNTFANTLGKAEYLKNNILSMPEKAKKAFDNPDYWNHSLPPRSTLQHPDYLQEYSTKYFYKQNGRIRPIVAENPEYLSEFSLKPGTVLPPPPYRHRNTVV
Procedure: as §1

Chain of EGFR (P00533 25-1210): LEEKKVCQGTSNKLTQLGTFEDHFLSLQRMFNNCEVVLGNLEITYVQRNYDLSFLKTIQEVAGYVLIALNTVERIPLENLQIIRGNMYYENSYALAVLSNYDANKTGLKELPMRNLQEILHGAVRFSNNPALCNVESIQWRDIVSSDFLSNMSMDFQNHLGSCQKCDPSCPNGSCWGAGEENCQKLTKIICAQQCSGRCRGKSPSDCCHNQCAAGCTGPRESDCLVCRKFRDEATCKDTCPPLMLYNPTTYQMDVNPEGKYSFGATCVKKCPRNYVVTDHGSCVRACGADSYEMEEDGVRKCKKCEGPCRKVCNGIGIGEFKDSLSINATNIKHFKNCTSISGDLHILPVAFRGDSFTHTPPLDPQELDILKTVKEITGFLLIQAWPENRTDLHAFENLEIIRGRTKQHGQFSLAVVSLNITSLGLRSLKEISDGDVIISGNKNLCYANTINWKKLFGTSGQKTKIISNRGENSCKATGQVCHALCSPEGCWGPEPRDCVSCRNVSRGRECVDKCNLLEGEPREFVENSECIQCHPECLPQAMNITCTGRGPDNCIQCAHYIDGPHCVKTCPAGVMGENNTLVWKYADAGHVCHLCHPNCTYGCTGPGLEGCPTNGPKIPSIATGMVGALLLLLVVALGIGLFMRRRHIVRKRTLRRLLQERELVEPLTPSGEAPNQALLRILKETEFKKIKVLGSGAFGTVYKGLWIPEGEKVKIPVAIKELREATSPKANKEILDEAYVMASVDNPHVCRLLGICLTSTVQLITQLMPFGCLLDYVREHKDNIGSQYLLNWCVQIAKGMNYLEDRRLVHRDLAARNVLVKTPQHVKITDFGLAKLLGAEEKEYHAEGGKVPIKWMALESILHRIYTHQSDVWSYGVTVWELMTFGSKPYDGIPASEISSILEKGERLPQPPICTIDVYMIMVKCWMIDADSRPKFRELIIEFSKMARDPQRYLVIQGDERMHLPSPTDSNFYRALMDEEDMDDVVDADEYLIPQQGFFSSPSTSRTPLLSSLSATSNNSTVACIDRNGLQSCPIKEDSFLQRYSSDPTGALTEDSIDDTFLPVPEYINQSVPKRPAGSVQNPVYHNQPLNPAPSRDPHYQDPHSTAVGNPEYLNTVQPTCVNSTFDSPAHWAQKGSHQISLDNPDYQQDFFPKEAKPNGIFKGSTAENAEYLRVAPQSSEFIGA

COc1cc2ncnc(Nc3ccc(F)c(Cl)c3)c2cc1NC(=O)/C(F)=C/CN(C)C [Compound 2-1, (Z)—N-(4-((3-chloro-4-fluorophenyl)amino)-7-methoxyquinazolin-6-yl)-4-(dimethylamino)-2-fluorobut-2-enamide]
IC50 (EGFR): 1.3 nM
IC50 (HER2): 75 nM
Tumor volume (NCI-H1975; Day 0): 190 ± 17 mm^3
Tumor volume (NCI-H1975; Day 2): 153 ± 11 mm^3
Tumor volume (NCI-H1975; Day 4): 121 ± 27 mm^3
Tumor volume (NCI-H1975; Day 7): 130 ± 20 mm^3
Tumor volume (NCI-H1975; Day 9): 134 ± 27 mm^3
Tumor volume (NCI-H1975; Day 11): 164 ± 33 mm^3
Inhibition of growth of NCI-H1975 in nude mice (in words) (NCI-H1975; 60 mpk, 60 mg/kg): strong inhibitory
IC50 (HER4): 23 nM
